According to BindingDB's records for doi:10.1021/acs.jmedchem.9b00963 (Hong Kong Polytechnic University, 2019):

Columns and labels:
[1] = Inhibition of BCRP in human MCF7/MX100 cells assessed as reversal of topotecan resistance after 5 days by MTS/PMS assay
[2] = Inhibition of BCRP (unknown origin) transfected in HEK293/R2 cells assessed as reversal of topotecan resistance after 5 days by MTS/PMS assay
[3] = Inhibition of P-gp (unknown origin) expressed in human LCC6MDR cells assessed as reversal of paclitaxel resistance after 5 days by MTS/PMS assay
[4] = Inhibition of BCRP (unknown origin) transfected in human HEK293/R2 cells assessed as potentiation of topotecan-induced cytotoxicity measured as topotecan IC50 at 1 uM (Rvb = 531.5 +/- 180 nM)
[5] = Inhibition of P-gp (unknown origin) expressed in human LCC6MDR cells assessed as potentiation of mitoxantrone-induced cytotoxicity after 5 days by MTS/PMS assay
[6] = Inhibition of BCRP (unknown origin) expressed in human HEK293/R2 cells assessed as potentiation of mitoxantrone-induced cytotoxicity after 5 days by MTS/PMS assay
[7] = Inhibition of MRP1 in human 2008/MRP1 cells assessed as reduction in cell viability after 5 days by MTS/PMS assay
[8] = Inhibition of MDR in human LCC6MDR cells assessed as reduction in cell viability after 5 days by MTS/PMS assay

SMILES	EC50 [1] [nM]	EC50 [2] [nM]	EC50 [3] [nM]	IC50 [4] [nM]	EC50 [5] [nM]	EC50 [6] [nM]	IC50 [7] [nM]	IC50 [8] [nM]
O=c1cc(-c2ccccc2)oc2cc(OCCOCc3cn(CCOCCOCCOc4ccc(-c5oc6ccccc6c(=O)c5OCc5ccccc5)cc4)nn3)ccc12	25	38	383	–	–	–	–	–
O=c1cc(-c2ccccc2)oc2cc(OCCN(Cc3ccccc3)Cc3cn(CCOCCOc4ccc(-c5cc(=O)c6cc(F)ccc6o5)cc4)nn3)ccc12	54	48	285	–	–	–	–	–
O=c1cc(-c2ccc(OCCOCCn3cc(CCCCOc4ccc5c(=O)cc(-c6ccccc6)oc5c4)nn3)cc2)oc2ccccc12	25	52	321	–	–	–	–	–
Cc1ccc2oc(-c3ccc(OCCCCc4cn(CCOCCOc5ccc(-c6cc(=O)c7ccccc7o6)cc5)nn4)cc3)cc(=O)c2c1	33	67	370	–	–	–	–	–
O=c1cc(-c2ccc(OCCOCCOCCn3cc(CN(CCOc4ccc5c(=O)cc(-c6ccccc6)oc5c4)Cc4ccccc4)nn3)cc2)oc2ccccc12	17	37	275	–	–	–	–	–
O=c1cc(-c2ccc(OCCOCCn3cc(CCCOc4ccc5c(=O)cc(-c6ccccc6)oc5c4)nn3)cc2)oc2ccccc12	30	67	300	–	–	–	–	–
O=c1cc(-c2ccccc2)oc2cc(OCCCc3cn(CCOCCOc4ccc5c(=O)cc(-c6ccccc6)oc5c4)nn3)ccc12	22	42	490	–	–	–	–	–
O=c1cc(-c2ccccc2)oc2cc(OCCCc3cn(CCOCCOCCOc4ccc(-c5cc(=O)c6cc(F)ccc6o5)cc4)nn3)ccc12	98	38	328	–	–	–	–	–
Cc1ccc2oc(-c3ccc(OCCCCc4cn(CCOCCOCCOc5ccc(-c6cc(=O)c7cc(C)ccc7o6)cc5)nn4)cc3)cc(=O)c2c1	230	54	526	–	–	–	–	–
Cc1ccc2oc(-c3ccc(OCCCCc4cn(CCOCCOCCOc5ccc(-c6cc(=O)c7cc(F)ccc7o6)cc5)nn4)cc3)cc(=O)c2c1	320	58	747	–	–	–	–	–
Cc1ccc2oc(-c3ccc(OCCCCc4cn(CCN(CCOc5ccc(-c6cc(=O)c7ccccc7o6)cc5)Cc5ccccc5)nn4)cc3)cc(=O)c2c1	39	70	679	–	–	–	–	–
COC(=O)c1cccc(COc2c(-c3ccc(OCCOCCn4cc(CN5CCCN(Cc6cn(CCOCCOc7ccc(-c8oc9ccccc9c(=O)c8OCc8cccc(C(=O)OC)c8)cc7)nn6)CC5)nn4)cc3)oc3ccccc3c2=O)c1	55	108	573	–	–	–	–	–
COC(=O)c1cccc(COc2c(-c3ccc(OCCOCCOCCn4cc(CN(Cc5cn(CCOCCOCCOc6ccc(-c7oc8ccccc8c(=O)c7OCc7cccc(C(=O)OC)c7)cc6)nn5)c5ccccc5)nn4)cc3)oc3ccccc3c2=O)c1	3.9	5.8	> 1000	–	–	–	–	–
O=c1cc(-c2ccccc2)oc2cc(OCCCCc3cn(CCOCCOc4ccc5c(=O)cc(-c6ccccc6)oc5c4)nn3)ccc12	39	34	365	–	–	–	–	–
Cc1ccc2oc(-c3ccc(OCCCCc4cn(CCOc5ccc6c(=O)cc(-c7ccccc7)oc6c5)nn4)cc3)cc(=O)c2c1	223	60	204	–	–	–	–	–
O=c1cc(-c2ccccc2)oc2cc(OCCOCCOCCn3cc(CN(Cc4ccccc4)Cc4cn(CCOCCOCCOc5ccc6c(=O)cc(-c7ccccc7)oc6c5)nn4)nn3)ccc12	250	83	> 1000	–	–	–	–	–
COC(=O)c1cccc(COc2c(-c3ccc(OCCOCCn4cc(-c5ccc(-c6cn(CCOCCOc7ccc(-c8oc9ccccc9c(=O)c8OCc8cccc(C(=O)OC)c8)cc7)nn6)cc5)nn4)cc3)oc3ccccc3c2=O)c1	27	14	> 1000	–	–	–	–	–
COC(=O)c1cccc(COc2c(-c3ccc(OCCOCCn4cc(CCCc5cn(CCOCCOc6ccc(-c7oc8ccccc8c(=O)c7OCc7cccc(C(=O)OC)c7)cc6)nn5)nn4)cc3)oc3ccccc3c2=O)c1	2.4	6.1	> 1000	19	–	–	–	–
COC(=O)c1cccc(COc2c(-c3ccc(OCCOCCn4cc(-c5cccc(-c6cn(CCOCCOc7ccc(-c8oc9ccccc9c(=O)c8OCc8cccc(C(=O)OC)c8)cc7)nn6)c5)nn4)cc3)oc3ccccc3c2=O)c1	1.1	2.2	> 1000	25	> 2000	11	–	–
COC(=O)c1cccc(COc2c(-c3ccc(OCCOCCn4cc(CN(Cc5ccccc5)Cc5cn(CCOCCOc6ccc(-c7oc8ccccc8c(=O)c7OCc7cccc(C(=O)OC)c7)cc6)nn5)nn4)cc3)oc3ccccc3c2=O)c1	3.3	5.3	> 1000	15	–	–	–	–

SMILES	EC50 [1] [nM]	EC50 [2] [nM]	EC50 [3] [nM]	IC50 [4] [nM]	EC50 [5] [nM]	EC50 [6] [nM]	IC50 [7] [nM]	IC50 [8] [nM]
COC(=O)c1cccc(COc2c(-c3ccc(OCCOCCn4cc(COCc5cn(CCOCCOc6ccc(-c7oc8ccccc8c(=O)c7OCc7cccc(C(=O)OC)c7)cc6)nn5)nn4)cc3)oc3ccccc3c2=O)c1	2.1	4.2	> 1000	20	–	–	–	–
COC(=O)c1cccc(COc2c(-c3ccc(OCCOCCn4cc(CCCOc5ccc6c(=O)cc(-c7ccccc7)oc6c5)nn4)cc3)oc3ccccc3c2=O)c1	24	7.2	616	–	–	–	–	–
O=c1cc(-c2ccccc2)oc2cc(OCCCc3cn(CCOCCOCCOc4ccc5c(=O)cc(-c6ccccc6)oc5c4)nn3)ccc12	177	57	515	–	–	–	–	–
O=c1cc(-c2ccc(OCCCc3cn(CCOCCOCCOc4ccc(-c5oc6ccccc6c(=O)c5OCc5ccccc5)cc4)nn3)cc2)oc2cc(F)ccc12	47	25	344	–	–	–	–	–
COC(=O)c1cccc(COc2c(-c3ccc(OCCOCCn4cc(CCCOc5ccc(-c6cc(=O)c7ccc(F)cc7o6)cc5)nn4)cc3)oc3ccccc3c2=O)c1	6.5	9.6	481	–	–	–	–	–
Cc1ccc2oc(-c3ccc(OCCCCc4cn(CCOCCOc5ccc(-c6oc7ccccc7c(=O)c6OCc6ccccc6)cc5)nn4)cc3)cc(=O)c2c1	24	33	605	–	–	–	–	–
O=c1cc(-c2ccc(OCCOCCOCCn3cc(CCCCOc4ccc5c(=O)cc(-c6ccccc6)oc5c4)nn3)cc2)oc2ccccc12	18	47	360	–	–	–	–	–
O=c1cc(-c2ccccc2)oc2cc(OCCCCc3cn(CCOCCOCCOc4ccc(-c5cc(=O)c6cc(F)ccc6o5)cc4)nn3)ccc12	31	44	325	–	–	–	–	–
O=c1cc(-c2ccccc2)oc2cc(OCCCCc3cn(CCOCCOc4ccc(-c5cc(=O)c6cc(F)ccc6o5)cc4)nn3)ccc12	18	43	264	–	–	–	–	–
O=c1cc(-c2ccccc2)oc2cc(OCCCCc3cn(CCOCCOCCOc4ccc5c(=O)cc(-c6ccccc6)oc5c4)nn3)ccc12	94	47	288	–	–	–	–	–
O=c1cc(-c2ccccc2)oc2cc(OCCOCCn3cc(COCCOc4ccc5c(=O)cc(-c6ccccc6)oc5c4)nn3)ccc12	308	195	> 1000	–	–	–	–	–
O=c1cc(-c2ccccc2)oc2cc(OCCOCCOCCn3cc(COCCOc4ccc5c(=O)cc(-c6ccccc6)oc5c4)nn3)ccc12	59	145	928	–	–	–	–	–
Cc1ccc2oc(-c3ccc(OCCOCCOCCn4cc(COCCOc5ccc6c(=O)cc(-c7ccccc7)oc6c5)nn4)cc3)cc(=O)c2c1	145	90	773	–	–	–	–	–
Cc1ccc2oc(-c3ccc(OCCCCc4cn(CCOCCOCCOc5ccc(-c6oc7ccccc7c(=O)c6OCc6ccccc6)cc5)nn4)cc3)cc(=O)c2c1	20	24	422	–	–	–	–	–
Cc1ccc2oc(-c3ccc(OCCCCc4cn(CCN(CCOc5ccc6c(=O)cc(-c7ccccc7)oc6c5)Cc5ccccc5)nn4)cc3)cc(=O)c2c1	372	543	> 1000	–	–	–	–	–
Cc1ccc2oc(-c3ccc(OCCOCCOCCn4cc(CCCCOc5ccc6c(=O)cc(-c7ccccc7)oc6c5)nn4)cc3)cc(=O)c2c1	46	33	198	–	–	–	–	–
Cc1ccc2oc(-c3ccc(OCCOCCOCCOCCOCCOc4ccc(-c5cc(=O)c6cc(C)ccc6o5)cc4)cc3)cc(=O)c2c1 [1,16-Bis[40-((6-methyl)-4H-chromen-4-on-2-yl)phenyl]-1,4,7,10,13,16-hexaoxahexadecane]	63	65	264	–	–	–	–	–
COc1ccc2c3c([nH]c2c1)[C@H](CC(C)C)N1C(=O)[C@H](CCC(=O)OC(C)(C)C)NC(=O)[C@@H]1C3 [Ko143]	–	–	1060	–	943	–	–	–
O=C1c2c(O)ccc(O)c2C(=O)c2c(NCCNCCO)ccc(NCCNCCO)c21 [SMR000058480]	–	–	–	–	–	–	28	1500
